Consider 79 molecules from article PMC12040169 (PLOS Biology, 2025).

This data set can be described thus: in vitro. Conditions: human, hela cells, % viability.

Each structure is given as a SMILES string.

Broadly, the viability is a read-out of living cells in per cent, often relative to untreated cells. `COC1C(O)C(CO)OC1n1cc(F)c(=S)[nH]c1=O` (stereo not shown) [CBK201168]: the viability at 28.5 h, 10 µM came to 96%.

Consider `COc1ncc(C(=O)NCc2cccnc2N(C)C2CCCCC2)cn1` [CBK306870], for which the viability at 28.5 h, 10 µM amounted to 91.8%.

As for `COc1ccc(-c2cc(C(=O)NCCc3c[nH]cn3)cnc2-c2ccc(F)cc2)cn1` [CBK036675], the viability at 28.5 h, 10 µM worked out at 112%.

In the case of `Cc1nn(-c2ccccc2)c(O)c1/C=N/c1ccccc1Sc1c(C)n[nH]c1C` [CBK262048], the viability at 28.5 h, 10 µM worked out at 89.1%.

`COc1ccccc1N1CCN(CCCCNS(=O)(=O)c2ccc(Cl)c(Cl)c2)CC1` [CBK074837]: the viability at 28.5 h, 10 µM was 97.8%.

In the case of `CC(=O)Nc1ccc(CCOc2nccnc2-c2ccccc2)cc1` [CBK106683], the viability at 28.5 h, 10 µM was 96.3%.

With `COc1ncccc1NC(=O)CSCC#N` [CBK306314], the viability at 28.5 h, 10 µM came to 108%.

For the molecule `O=C(NC(c1ccc(Cl)cc1)c1ccsc1)C1CCN(S(=O)(=O)CC(F)(F)F)CC1` (stereo not shown) [CBK060088], the viability at 28.5 h, 10 µM amounted to 89.1%.

In the case of `Cc1cc(C)n(CCCNC(=O)N2CCC(c3nccs3)CC2)n1` [CBK304088], the viability at 28.5 h, 10 µM is 91.9%.

Regarding `O=C(Cc1c[nH]cn1)Nc1ccc2cc[nH]c2c1` [CBK160059], the viability at 28.5 h, 10 µM was found to be 95.1%.

Consider `Oc1ccccc1-c1cc(-c2ccccc2)c2c(ccc3ncccc32)n1` [CBK261276], for which the viability at 28.5 h, 10 µM was 91.9%.

On to `CC(C)(C)c1ccc(-c2ccc3ccc(=O)[nH]c3n2)cc1` [CBK073716], for which the viability at 28.5 h, 10 µM was 96.5%.

Regarding `O=C(O)CCSc1nc2ccccc2[nH]1` [CBK262056], the viability at 28.5 h, 10 µM amounted to 96.2%.

As to `Fc1ccc2[nH]c3c(c2c1)CCNC31CCN(CCOc2ccccc2)C1` (stereo not shown) [CBK085404T], the viability at 28.5 h, 10 µM was 98%.

In the case of `O=S(=O)(Nc1nncs1)c1ccccc1` [CBK045489], the viability at 28.5 h, 10 µM was determined as 86.7%.

Take `Cc1nc(C(=O)NCC2CN3CCCN2CC3)ccc1C(=O)O` (stereo not shown) [CBK304242]: the viability at 28.5 h, 10 µM was found to be 94%.

With `CCOc1ccc(-c2nc(CC(=O)O)cs2)cc1` [CBK295300], the viability at 28.5 h, 10 µM amounted to 87.7%.

For the molecule `Cc1ccc2c(c1)C(=O)CC1(CC3CCC1N3C(=O)C(C)C)O2` (stereo not shown) [CBK284468], the viability at 28.5 h, 10 µM was 87.1%.

For `O=C(COc1ccc(Cl)cc1Cl)NC(Cc1ccccc1)C(=O)O` (stereo not shown) [CBK261061], the viability at 28.5 h, 10 µM came out at 102%.

With `CC(=O)Nc1nc(C(=O)N2CCOC(c3ccc(F)cc3)C2)cs1` (stereo not shown) [CBK244238], the viability at 28.5 h, 10 µM amounted to 99.3%.

With `O=C(c1ccccc1)c1ccc(S(=O)(=O)N2CCN(Cc3ccc(O)c(F)c3)CC2)cc1` [CBK062948], the viability at 28.5 h, 10 µM turned out to be 95.8%.

On to `O[C@H](CNCc1ccccc1)COc1cccc2c1C1CCC2CC1` [CBK000370], for which the viability at 28.5 h, 10 µM is 92.6%.

`CC(C)(C)c1cc(CCC(=O)N2CCN(C(=O)CCc3cc(C(C)(C)C)c(O)c(C(C)(C)C)c3)CC2)cc(C(C)(C)C)c1O` [CBK261963]: the viability at 28.5 h, 10 µM was found to be 91.1%.

For the molecule `CC(CCc1ccccc1)NC(=O)CC1COc2ccccc2O1` (stereo not shown) [CBK266203], the viability at 28.5 h, 10 µM turned out to be 103%.

Turning to `O=C(Nc1ccc(N2CCOCC2)c(Cl)c1)c1cccc(-n2cnnc2)c1` [CBK269853], the viability at 28.5 h, 10 µM came out at 95.6%.

As to `NS(=O)(=O)c1ccc(NC(=O)c2cc([N+](=O)[O-])ccc2N2CCOCC2)cc1` [CBK268972], the viability at 28.5 h, 10 µM was found to be 101%.

Turning to `O=C(Nc1cccc(F)c1)C(c1ccccc1)N1CCOCC1` (stereo not shown) [CBK269191], the viability at 28.5 h, 10 µM worked out at 84.5%.

For the molecule `N#CCCn1cc(C(=O)Nc2ccc(C(=O)O)cc2)c(-c2cc3ccccc3o2)n1` [CBK267866], the viability at 28.5 h, 10 µM was 96.6%.

For `O=C(O)c1ccc(Cl)c(-c2ccc(/C=N/Nc3ccc([N+](=O)[O-])cc3)o2)c1` [CBK078331], the viability at 28.5 h, 10 µM turned out to be 97.8%.

As for `O=C(Cn1cccnc1=O)NCc1cccnc1OCC(F)(F)F` [CBK305949], the viability at 28.5 h, 10 µM amounted to 109%.

Take `c1nncn1/N=C1/CCCc2nonc21` [CBK261065]: the viability at 28.5 h, 10 µM was 91.8%.

For `Cc1cc(=O)oc2cc(NC(=S)N3CCN(C/C=C/c4ccccc4)CC3)ccc12` [CBK267045], the viability at 28.5 h, 10 µM came out at 92%.

`Cc1cc(C)n(C(C(=O)NCC2(C)COC2)C(C)C)n1` (stereo not shown) [CBK281758]: the viability at 28.5 h, 10 µM came to 85.9%.

Turning to `c1ccc2c(COc3nccnc3N3CCNCC3)ccnc2c1` [CBK014866], the viability at 28.5 h, 10 µM turned out to be 90.3%.

As for `NNC(=O)CSc1nnc(-c2ccccc2)n1-c1ccccc1` [CBK223486], the viability at 28.5 h, 10 µM amounted to 92.5%.

With `O=C(NCCn1nc(-c2cccs2)ccc1=O)c1cccs1` [CBK283836], the viability at 28.5 h, 10 µM was determined as 77%.

As to `CCN(CC(=O)Nc1c(F)cccc1F)S(=O)(=O)c1cccc(C#N)c1` [CBK306197], the viability at 28.5 h, 10 µM is 85.4%.

With `CCC(Oc1cc(C)ccc1Cl)C(=O)Nc1sccc1C(N)=O` (stereo not shown) [CBK268152], the viability at 28.5 h, 10 µM was 105%.

On to `Cc1nc(-c2ccc(Cl)cc2)sc1C(=O)N1CCCC(C(=O)O)C1` (stereo not shown) [CBK304407], for which the viability at 28.5 h, 10 µM stood at 91.9%.

`O=C(CCS(=O)(=O)c1cc(Cl)ccc1Cl)OCC(=O)c1ccccc1` [CBK261256]: the viability at 28.5 h, 10 µM stood at 90.1%.

As for `COCCOCC(=O)N1CCC2(C/C=C/C[C@H]3COCC[C@H]3NC(=O)CNC2=O)CC1` [CBK292170], the viability at 28.5 h, 10 µM came out at 105%.

`O=C(CN1C(=O)C2C3c4ccccc4C(c4ccccc43)C2C1=O)OCC(=O)c1ccc(F)cc1` (stereo not shown) [CBK264861]: the viability at 28.5 h, 10 µM came to 106%.

In the case of `O=C(O)C1CCCCN1Cc1ccccc1` (stereo not shown) [CBK261687], the viability at 28.5 h, 10 µM came out at 94.9%.

On to `CCOC(=O)C1=C(C)N(c2ccc(C(=O)O)cc2)C(=O)NC1c1ccc(OC(F)F)c(OC)c1` (stereo not shown) [CBK297878], for which the viability at 28.5 h, 10 µM turned out to be 90.1%.

As for `O=C(NC1CCN(CC2(c3ccccc3)CC2)CC1)C1CCOCC1` [CBK285352], the viability at 28.5 h, 10 µM was determined as 94.4%.

As for `O=C(O)C(Cc1c[nH]c2ccccc12)NCC1CCCCC1` (stereo not shown) [CBK287238], the viability at 28.5 h, 10 µM was 110%.

In the case of `Cc1cc(C(=O)NC(C)C2CC3CCC2C3)c2cnn(C(C)C)c2n1` (stereo not shown) [CBK281652], the viability at 28.5 h, 10 µM worked out at 96%.

For the molecule `O=C1NCC2(CCN(C(=O)c3ccco3)CC2)Oc2ccccc21` [CBK282919], the viability at 28.5 h, 10 µM worked out at 103%.

Take `Cc1nn(CCC#N)c(C)c1[C@@H]1C=C[C@@H](NS(=O)(=O)c2ccccc2)C1` [CBK288805]: the viability at 28.5 h, 10 µM turned out to be 91%.

`Cc1cc(C)n(CC(=O)N2CCCCC2C(=O)O)n1` (stereo not shown) [CBK305266]: the viability at 28.5 h, 10 µM is 91.3%.

In the case of `O=C(CSc1ncccc1C(=O)O)Nc1ccc(Oc2ccccc2)cc1` [CBK266340], the viability at 28.5 h, 10 µM was 106%.

For the molecule `CCCNC(=O)CN(C)CC(=O)Nc1sc2c(c1C#N)CCC(C)C2` (stereo not shown) [CBK305845], the viability at 28.5 h, 10 µM is 82.5%.

In the case of `CC[C@H]1C[N@@]2CC[C@H]1C[C@@H]2CNS(=O)(=O)c1ccc(NC(C)=O)cc1` [CBK288745], the viability at 28.5 h, 10 µM is 82.9%.

With `Cc1onc(-c2ccccc2)c1C(=O)N1CCC1` [CBK160450], the viability at 28.5 h, 10 µM was determined as 90.6%.

`N=C(N)NC1=NC(=O)C(CC(=O)Nc2ccc(Oc3ccccc3)cc2)S1` (stereo not shown) [CBK300482]: the viability at 28.5 h, 10 µM came to 105%.

As to `FC(F)(F)c1ccncc1-n1cccc1` [CBK021909], the viability at 28.5 h, 10 µM was 85.9%.

For the molecule `COc1ccc(C(=O)N2CCC3(CCCN(Cc4nc5ccccc5[nH]4)C3)C2)cc1OC` (stereo not shown) [CBK132847], the viability at 28.5 h, 10 µM turned out to be 93.9%.

For `Cc1ccc(S(=O)(=O)NC(C)(C)CSc2nnc(N)s2)cc1` [CBK266350], the viability at 28.5 h, 10 µM stood at 97.1%.

For the molecule `CN1CCN(CCCNC(=O)N(CCC#N)C2CCCCC2)CC1` [CBK156346], the viability at 28.5 h, 10 µM came to 112%.

In the case of `c1ccc(-c2ccccc2CN2CCC(Oc3nccnc3OCCN3CCOCC3)CC2)cc1` [CBK082924T], the viability at 28.5 h, 10 µM was 102%.

Take `S=C(NCC1CCN(C(=S)NC2CCCCC2)CC1)NC1CCCCC1` [CBK004987]: the viability at 28.5 h, 10 µM came to 87.7%.

With `CCNC(=S)NC1CC[C@@]2(C3=CC=CC4C=CC=CC34)CCN(C)[C@H]2C1` (stereo partly shown) [CBK003596C], the viability at 28.5 h, 10 µM was 91.7%.

Turning to `CC(C)(C)c1cn(C[C@H]2CC3CCN2C[C@@H]3C(=O)NCc2ccc(F)cc2)nn1` (stereo partly shown) [CBK289081], the viability at 28.5 h, 10 µM was determined as 102%.

Turning to `Cc1cc(Cn2nnnc2-c2ccncc2)cc(C)c1O` [CBK291103], the viability at 28.5 h, 10 µM turned out to be 104%.

Regarding `O=c1[nH]c2ccccc2n1CCCN1CCC2(CC1)CN(CCO)c1ccccc12` [CBK137133], the viability at 28.5 h, 10 µM worked out at 97.4%.

Turning to `COc1cccc2sc(NC(=O)c3ccc4ncsc4c3)nc12` [CBK287365], the viability at 28.5 h, 10 µM was 98.5%.

Consider `O=C(CSc1nnc(-c2ccco2)o1)c1ccc2c(c1)OCCO2` [CBK266387], for which the viability at 28.5 h, 10 µM is 105%.

As to `NC(=O)c1ccccc1NC(=O)CCCN1C(=O)CCC1=O` [CBK267680], the viability at 28.5 h, 10 µM came to 94.1%.

As to `CCc1nc2ccc(C(=O)Nc3ccc4c(c3)OCC(=O)N4)cn2c1N(C)CC` [CBK145521], the viability at 28.5 h, 10 µM was determined as 96.8%.

In the case of `CCC(C)CC(=O)NS(=O)(=O)c1cc(C#N)ccc1C` (stereo not shown) [CBK306487], the viability at 28.5 h, 10 µM came out at 88.1%.

With `O=C(CSc1nc(N2CCOCC2)nc(N2CCOCC2)n1)c1ccc([N+](=O)[O-])cc1` [CBK269107], the viability at 28.5 h, 10 µM came to 86.9%.

With `Cn1ccnc1C1(O)CC2CCC(C1)N2C(=O)NC1CCCCC1` (stereo not shown) [CBK284049], the viability at 28.5 h, 10 µM turned out to be 88.5%.

Regarding `O=C(NCc1ccccn1)c1ccc(-n2ccnc2)c(-n2cccc2)c1` [CBK285347], the viability at 28.5 h, 10 µM came out at 80.8%.

Regarding `O=C(c1cccnc1)N1CCN(S(=O)(=O)c2ccc(F)cc2)CC1` [CBK264210], the viability at 28.5 h, 10 µM was 92.8%.

In the case of `CC1=CC(C)C(CNCCN2CCNCC2)C(C)C1` (stereo not shown) [CBK262832], the viability at 28.5 h, 10 µM came out at 90%.

As to `CC(C)c1nc(CN2CCN(c3ccc4nncn4n3)CC2)cs1` [CBK306219], the viability at 28.5 h, 10 µM amounted to 102%.

As for `Cn1c(/C(C#N)=C\c2ccc(-c3ccc(S(N)(=O)=O)cc3)o2)nc2ccccc21` [CBK266380], the viability at 28.5 h, 10 µM stood at 95%.

Regarding `COc1cccc(-c2ccc(NC(=O)c3ccc(Cn4cnnn4)cc3)cc2)c1` [CBK285850], the viability at 28.5 h, 10 µM stood at 93.4%.

Regarding `CC(C)NCC(O)Cn1c2c(c3ccccc31)CCc1c-2cnn1-c1ccccc1` (stereo not shown) [CBK261107], the viability at 28.5 h, 10 µM stood at 99.6%.
